# Laboratory results taken from patent US11371055B2, “Herbicide resistance genes” (CORTEVA AGRISCIENCE LLC, priority 2005, dated 2022).
# Tests used:
# AAD-12 (v2) = target: T1, AAD-12 (v2) (Delftia acidovorans, UniProt P83309); experiment: Chloropyridinol detection assay (absorbance at 325 nm); assay type: biochemical; conditions: 6.8 μg AAD-12 (v2), 1 mM substrate; for Rate (mAU/min): 325 nm, background rate 1.4 mAU/min subtracted
# T1 construct: made in house; host or cells: Pseudomonas fluorescens strain MB324 (construct pDAB739)
# Text: AAD-12 action on potential substrates such as the herbicide triclopyr containing a substituted pyridine (rather than benzene rings) will release a pyridinol on cleavage of the aryloxyalkanoate bond. Pyridinols were not detected using the aminoantipyrine/ferricyanide phenol detection described in the preceding section. […] This was used to create a continuous microplate-based spectrophotometric assay.
# All five pyridyloxyalkanoates were cleaved to release pyridinols by AAD-12 (v2). The rates for the oxypropionate substrates 116844 and 91767 were somewhat faster than those for the corresponding acetates (triclopyr and 93833 respectively) indicating a preference of AAD-12 (v2) for oxypropionate over oxyacetate side chains.
# [1] = tested on: Segregating T2 AAD-12 (v1) plants (pDAB724.01.1.20); experiment: Foliar-applied auxinic herbicides on T2 Arabidopsis; assay type: in vivo, Arabidopsis thaliana; conditions: Inactive DCP metabolite
# Protocol: (§1) The ability of AAD-12 (v1) to provide resistance to other aryloxyalkanoate auxin herbicides in transgenic Arabidopsis was determined by foliar application of various substrates. T2 generation Arabidopsis seed was stratified, and sown into selection trays much like that of Arabidopsis (Example 6.4). A transformed-control line containing PAT and the insect resistance gene Cry1F was planted in a similar manner. Seedlings were transferred to individual 3-inch pots in the greenhouse. All plants were sprayed with the use of a track sprayer set at 187 L/ha. The plants were sprayed with a range of pyridyloxyacetate herbicides: 280-2240 g ae/ha triclopyr (Garlon 3A, Dow AgroSciences) and 280-2240 g ae/ha fluroxypyr (Starane, Dow AgroSciences); and the 2,4-D metabolite resulting from AAD-12 activity, 2,4-dichlorophenol (DCP, Sigma) (at a molar equivalent to 280-2240 g ac/ha of 2,4-D, technical grade DCP was used). All applications were formulated in water. Each treatment was replicated 3-4 times. Plants were evaluated at 3 and 14 days after treatment.
# [2] = tested on: Pat/Cry1f-Control Arabidopsis; experiment: Foliar-applied auxinic herbicides on transformed control Arabidopsis; assay type: in vivo, Arabidopsis thaliana; conditions: for Ave % Injury 14DAT: Inactive DCP metabolite
# Protocol: as §1
# wildtype tobacco = experiment: Auxinic herbicide cross tolerance of stacked tobacco, wildtype; assay type: in vivo, Nicotiana tabacum; conditions: KY160 wildtype control; 280 g ae/ha
# Protocol: (§2) Homozygous AAD-12 (v1) (pDAS1580) and AAD-1 (v3) (pDAB721) plants (see PCT/US2005/014737 for the latter) were both reciprocally crossed and F1 seed was collected. The F1 seed from two reciprocal crosses of each gene were stratified and treated 4 reps of each cross were treated under the same spray regimen as used for the other testing with one of the following treatments: 70, 140, 280 g ac/ha fluroxypyr (selective for the AAD-12 (v1) gene); 280, 560, 1120 g ae/ha R-dichloroprop (selective for the AAD-1 (v3) gene); or 560, 1120, 2240 g ae/ha 2,4-D DMA (to confirm 2,4-D tolerance). Homozygous T2 plants of each gene were also planted for use as controls. Plants were graded at 3 and 14 DAT.
# [3] = tested on: AAD-12 (v1) (pDAS1580) T2 tobacco plants; experiment: Auxinic herbicide cross tolerance of stacked tobacco, AAD-12 T2; assay type: in vivo, Nicotiana tabacum; conditions: 280 g ae/ha
# Protocol: as §2
# [4] = tested on: AAD-12 x AAD-1 F1 cross tobacco; experiment: Auxinic herbicide cross tolerance of stacked tobacco, F1 cross; assay type: in vivo, Nicotiana tabacum; conditions: AAD-12 (v1) x AAD (v3) F1; 280 g ae/ha
# Protocol: as §2
# [5] = tested on: AAD-1 (v3) (pDAB721) T2 tobacco plants; experiment: Auxinic herbicide cross tolerance of stacked tobacco, AAD-1 T2; assay type: in vivo, Nicotiana tabacum; conditions: 280 g ae/ha
# Protocol: as §2
# [6] = 280 g ae/ha (molar equivalent of 2,4-D) foliar
# [7] = 560 g ae/ha (molar equivalent of 2,4-D) foliar
# [8] = 1120 g ae/ha (molar equivalent of 2,4-D) foliar
# [9] = 2240 g ae/ha (molar equivalent of 2,4-D) foliar
# T1 sequence (P83309 whole entry, looked up, natural form): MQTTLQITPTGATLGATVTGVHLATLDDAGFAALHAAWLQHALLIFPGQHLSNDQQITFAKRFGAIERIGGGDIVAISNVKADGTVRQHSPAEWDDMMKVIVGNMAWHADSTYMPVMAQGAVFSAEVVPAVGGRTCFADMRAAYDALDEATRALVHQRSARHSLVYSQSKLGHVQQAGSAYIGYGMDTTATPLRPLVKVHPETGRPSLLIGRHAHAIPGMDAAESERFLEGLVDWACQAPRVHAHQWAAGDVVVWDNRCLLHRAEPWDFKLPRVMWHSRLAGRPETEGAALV
structure (smiles),measurement,setting,value
CC(Oc1ncc(Cl)cc1Cl)C(=O)O (centres unmarked) [compound 66357],Rate relative to triclopyr,AAD-12 (v2),2.3
same,Rate (mAU/min),AAD-12 (v2),225 mAU/min
O=C(O)COc1nc(F)c(Cl)cc1Cl [compound 93833],Rate relative to triclopyr,AAD-12 (v2),0.5
same,Rate (mAU/min),AAD-12 (v2),118 mAU/min
"Oc1ccc(Cl)cc1Cl [2,4-DCP, 2,4-dichlorophenol]",Ave % Injury 14DAT,[1]; [6],0%
same,Ave % Injury 14DAT,[1]; [7],0%
same,Ave % Injury 14DAT,[1]; [8],0%
same,Ave % Injury 14DAT,[1]; [9],0%
same,Ave % Injury 14DAT,[2]; [6],0%
same,Ave % Injury 14DAT,[2]; [7],0%
same,Ave % Injury 14DAT,[2]; [8],0%
same,Ave % Injury 14DAT,[2]; [9],0%
same,effect on plants after foliar application,"[2]; molar equivalent to 280-2240 g ae/ha of 2,4-D",no effect
Nc1c(Cl)c(F)nc(OCC(=O)O)c1Cl [fluroxypy],Average % injury 14 DAT,wildtype tobacco,75%
same,Average % injury 14 DAT,[3],3%
same,Average % injury 14 DAT,[4],3%
same,Average % injury 14 DAT,[5],75%
